Experimental data taken from US5446026A, “Potent non-opiate analgesic” (Advanced Peptides & Biotechnology Sciences, priority 1993, dated 1995).
Read-outs that look alike come from different tables or passages of the source. No end group written: not given here.

How the values were obtained:
[1] = periaqueductal gray administration; cited from earlier work
[2] = analgesia after subcutaneous injection (tail-flick and hot plate tests); format: in vivo, rodent
bone = experiment: uptake of calcium into bone; settings: under the conditions tested
From the text: (§1) Studies of analgesia in monkeys is underway and following animal toxicity human trials should be undertaken. […] We would expect that this peptide, like other peptide analogs of naturally occurring modulatory substances, would be potent in quite low (milligram) doses in humans and should be able to alleviate quite severe pain even in these low doses. [drawing 1] R1, R2 =OH: Cholic Acid 89.010a R1 =H, R2 =OH: Chenodeoxycholic Acid 89.010b R1 =OH, R2 =H: Deoxycholic Acid [drawing 2] PEPTIDE-Pro-Arg-Thr-Asn-Thr-Gly-Ser-Gly-Thr-Pro-amide.

[3] = rats; cited from earlier work
[4] = cited from earlier work
calcitonin receptor = biological target: T1, calcitonin receptor (Homo sapiens, UniProt P30988); experiment: in vitro receptor binding, displacement of 125-I calcitonin
T1 sequence (P30988 25-474): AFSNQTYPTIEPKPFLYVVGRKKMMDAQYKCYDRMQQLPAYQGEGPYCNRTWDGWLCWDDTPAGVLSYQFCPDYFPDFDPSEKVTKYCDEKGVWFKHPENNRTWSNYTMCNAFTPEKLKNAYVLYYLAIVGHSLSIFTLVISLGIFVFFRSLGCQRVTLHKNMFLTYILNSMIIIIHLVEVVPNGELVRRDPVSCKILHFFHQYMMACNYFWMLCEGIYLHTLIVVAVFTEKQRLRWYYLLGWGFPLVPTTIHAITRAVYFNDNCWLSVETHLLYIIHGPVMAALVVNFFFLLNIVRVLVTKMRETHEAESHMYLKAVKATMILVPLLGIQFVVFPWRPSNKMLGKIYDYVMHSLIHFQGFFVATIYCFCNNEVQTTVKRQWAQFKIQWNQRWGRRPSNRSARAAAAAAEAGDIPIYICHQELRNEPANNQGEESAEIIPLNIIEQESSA

[5] = biological target: T2, 69 Kd receptor molecule (calcitonin receptor) (Homo sapiens, UniProt P30988); experiment: crosslinking / SDS-PAGE in vitro receptor binding
T2 sequence (P30988 25-474): T1 sequence (P30988 25-474)

[6] = three classical tests of rodent analgesia (hot plate, paw pressure, tail flick); format: in vivo; settings: paw pressure and tail flick tests (FIG. 4)
[7] = observation of rodent behavior, righting reflex, inclined plane; format: in vivo
From the text: as §1

## CC(C)C[C@H](NC(=O)[C@H](Cc1ccccc1)NC(=O)CNC(=O)CNC(=O)[C@@H](N)Cc1ccc(O)cc1)C(=O)O [enkephalin]
[1]
  analgesia: weak and transient

## CN1CC[C@]23c4c5ccc(O)c4O[C@H]2[C@@H](O)C=C[C@H]3[C@H]1C5 [morphine, reference compound]
[2]
  analgesia at two hours, the last time point tested: has already returned to baseline

## CC(C)C[C@H](NC(=O)[C@H](CCCCN)NC(=O)CNC(=O)[C@H](CC(C)C)NC(=O)[C@@H](NC(=O)[C@@H]1CSSC[C@H](N)C(=O)N[C@@H](CO)C(=O)N[C@@H](CC(N)=O)C(=O)N[C@@H](CC(C)C)C(=O)N[C@@H](CO)C(=O)N[C@@H]([C@@H](C)O)C(=O)N1)C(C)C)C(=O)N[C@@H](CO)C(=O)N[C@@H](CCC(N)=O)C(=O)N[C@@H](CCC(=O)O)C(=O)N[C@@H](CC(C)C)C(=O)N[C@@H](Cc1c[nH]cn1)C(=O)N[C@@H](CCCCN)C(=O)N[C@@H](CC(C)C)C(=O)N[C@@H](CCC(N)=O)C(=O)N[C@H](C(=O)N[C@@H](Cc1ccc(O)cc1)C(=O)N1CCC[C@H]1C(=O)N[C@@H](CCCNC(=N)N)C(=O)N[C@H](C(=O)N[C@@H](CC(N)=O)C(=O)N[C@H](C(=O)NCC(=O)N[C@@H](CO)C(=O)NCC(=O)N[C@H](C(=O)N1CCC[C@H]1C(N)=O)[C@@H](C)O)[C@@H](C)O)[C@@H](C)O)[C@@H](C)O [salmon calcitonin, reference compound]
bone
  uptake of calcium into bone: profound response

## Calcitonin
[3]
  analgesic activity: extremely potent analgesic
[4]; human, in vivo
  penetration into the brain: does not penetrate into the brain
  side effects: No important side effects
[4]; terminal cancer patients, injection into the subarachnoid space
  analgesic activity: extremely potent analgesic

## Pro-Arg-Thr-Asn-Thr-Gly-Ser-Gly-Thr-Pro-NH2 (PRTNTGSGTP-NH2) [PD89.010b, modified calcitonin decapeptide]
Calcitonin receptor; displacement of 125-I human calcitonin (FIG. 2A)
  in vitro receptor binding as human calcitonin analog: potent
Calcitonin receptor; displacement of 125I salmon calcitonin (FIG. 2B)
  in vitro receptor binding as salmon calcitonin analog: weak
[5]; at 1 μM (FIG. 3A)
  displacement of iodinated salmon calcitonin from the 69 Kd receptor molecule: completely displaces
[5]; at 1 μM (FIG. 3B)
  displacement of iodinated human calcitonin from the 69 Kd receptor molecule: completely displaces
[6]
  analgesic responses: significant and profound analgesic responses
[2]
  onset of analgesia compared with morphine: much more rapid onset of analgesia
  analgesia at two hours, the last time point tested: still is showing significant analgesia
[2]; one quarter the molar equivalent of morphine (FIG. 5A)
  analgesia, tail-flick test: profound and long lived analgesia
[2]; one quarter the molar equivalent of morphine (FIG. 5B)
  analgesia, hot plate test: profound and long lived analgesia
[7]; in vivo
  behavior and balance on an inclined plane: remained unchanged
  righting reflex: remained unchanged
[7]; trained observers of rodent behavior
  behavioral incapacitation effects: no obvious behavioral incapacitation effects
bone
  uptake of calcium into bone: does not appear to enhance
